Results on 19 molecules are retold here after patent US20260365653A1, “IRREVERSIBLE MUTEGFR INHIBITORS” (Bayer Aktiengesellschaft, priority 2022, published 2026).

The target of assay [1] is T1, mutEGFR (D770_N771insNPG, T790) (Homo sapiens, UniProt P00533, INS770NPG/T790M).
T1 construct: exact insNPG construct not described; in-house EGFR proteins were N-terminal GST fusions from baculovirus/insect cells (borders R669-A1210 given only for WT, insSVD, insASV)
The experiment in a line: mutEGFR (D770_N771insNPG, T790) kinase assay. It counts as biochemical. Conditions: Table 2a, D770_N771insNPG. An excerpt: The different EGFR proteins used in the biochemical kinase activity inhibition assays were generated inhouse by expression in insect cells using Baculo Virus system and subsequent purification as described in the following paragraphs.
The cDNAs encoding the various protein sequences from human EGFR human (P00533) were optimized for expression in eukaryotic cells and synthesized by the GeneArt Technology at Life Technologies.

The test system of the next assay is BA/F3 (insSVD) cells. The assay can be described thus: Ba/F3-EGFR-insSVD cell survival assay (Cell Titer-Glo). It counts as cell-based. To be noted: Table 3a, cell survival, Cell Titer-Glo, with 10 ng/ml EGF, without IL-3. How it is done: Cellular Data Description (WT, insSVD, insSVD T790M) 293T cells from ATCC were transfected with pBABEpuro expression constructs for WT EGFR or EGFR-insSVD, or EGFR-insSVD T790M, and pCL-Eco packaging vector using Fugene-6 transfection reagent from Promega. Plates were incubated at 37° C. for 48 h. Retrovirus was harvested by filtering the media supernatant through a 0.45 μm filter.
Ba/F3 cells purchased from DSMZ were grown in RPMI+10% FBS+10 ng/ml IL-3 and infected with filtered retroviral supernatant at a 1:2 dilution. Polybrene was added to a concentration of 8 μg/mL, plates were spun for 90 min, and incubated for 16 h at 37° C. 2 μg/mL puromycin was added to the infected cells 24 h after infection and cells were continually grown in the presence of puromycin and 10 ng/ml IL-3. Following stably expressing Ba/F3 cell lines were generated: Ba/F3-EGFR-WT, Ba/F3-EGFR-insSVD, Ba/F3-EGFR-insSVD T790M, (Ba/F3-vector-control).
For cell survival assays, Ba/F3 cells were grown to a density of 1-2 million cells per mL, spun down and resuspended in media without IL-3, and replated at a concentration of 200,000-500,000 cells per mL. The cells ectopically expressing WT EGFR, EGFR-insSVD, or EGFR-insSVD T790M were plated with 10 ng/ml Millipore Culture grade EGF. The cells ectopically expressing pBABEpuro empty vector were plated with 10 ng/mL IL-3.
2 days later, cells were plated in 50 µL in a 384 well plate at a concentration of 4000 cells per well for cells assayed in the absence of IL-3 and 2000 cells per well for cells assayed in the presence of IL-3. 100 nL of compound was added to each well using a 100 nL pin head, and plates were incubated at 37° C. for 48 h.
Cell viability was measured by adding 20 μL of Cell Titer-Glo Luminescent Cell Viability Reagent diluted 1:3 in PBS. Plates were sealed with Perkin Elmer Top-Seal, inverted several times to mix, and immediately centrifuged at 1000 rpm for 2 min. Plates were incubated in low light conditions for 8-10 min and luminescence was measured.
A general note: Cellular ATP, detected with luciferase, serves as a proxy for viable cell number.

Assay [2] concerns the target T2, mutEGFR (D770_N771insSVD) (Homo sapiens, UniProt P00533, DUP768-770).
T2 construct: GST-EGFR #3 (SVD between D770 and N771); made in house; host or cells: Sf9 insect cells (baculovirus)
The assay can be described thus: Exon20-Mutant-EGFR (D770_N771insSVD) kinase assay (TR-FRET). Conditions: mutEGFR (D770_N771insSVD) kinase assay IC50, Table 2a; D770_N771insSVD; 2 mM ATP. It counts as biochemical. For orientation: Time-resolved FRET reads energy transfer from a long-lived donor to a nearby acceptor.

pIC50: −log10 of the molar value.

T2 sequence (P00533 with tags, fused parts or gaps DUP768-770): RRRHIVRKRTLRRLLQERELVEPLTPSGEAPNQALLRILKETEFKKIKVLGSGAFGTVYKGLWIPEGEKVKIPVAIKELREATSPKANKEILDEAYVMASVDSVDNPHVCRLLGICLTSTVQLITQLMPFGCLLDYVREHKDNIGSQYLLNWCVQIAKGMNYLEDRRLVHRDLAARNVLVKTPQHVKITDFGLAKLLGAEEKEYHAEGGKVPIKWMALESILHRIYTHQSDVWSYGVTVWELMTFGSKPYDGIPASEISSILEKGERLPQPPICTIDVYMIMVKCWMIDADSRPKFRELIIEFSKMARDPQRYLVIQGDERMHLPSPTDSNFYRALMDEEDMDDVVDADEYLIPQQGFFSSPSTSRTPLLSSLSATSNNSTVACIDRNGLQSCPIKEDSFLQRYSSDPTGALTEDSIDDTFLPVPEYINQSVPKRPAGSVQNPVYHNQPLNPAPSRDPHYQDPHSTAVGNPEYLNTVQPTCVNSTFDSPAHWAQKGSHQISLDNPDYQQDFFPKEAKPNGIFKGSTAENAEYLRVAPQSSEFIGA
T1 sequence (P00533 with tags, fused parts or gaps INS770NPG/T790M limits assumed): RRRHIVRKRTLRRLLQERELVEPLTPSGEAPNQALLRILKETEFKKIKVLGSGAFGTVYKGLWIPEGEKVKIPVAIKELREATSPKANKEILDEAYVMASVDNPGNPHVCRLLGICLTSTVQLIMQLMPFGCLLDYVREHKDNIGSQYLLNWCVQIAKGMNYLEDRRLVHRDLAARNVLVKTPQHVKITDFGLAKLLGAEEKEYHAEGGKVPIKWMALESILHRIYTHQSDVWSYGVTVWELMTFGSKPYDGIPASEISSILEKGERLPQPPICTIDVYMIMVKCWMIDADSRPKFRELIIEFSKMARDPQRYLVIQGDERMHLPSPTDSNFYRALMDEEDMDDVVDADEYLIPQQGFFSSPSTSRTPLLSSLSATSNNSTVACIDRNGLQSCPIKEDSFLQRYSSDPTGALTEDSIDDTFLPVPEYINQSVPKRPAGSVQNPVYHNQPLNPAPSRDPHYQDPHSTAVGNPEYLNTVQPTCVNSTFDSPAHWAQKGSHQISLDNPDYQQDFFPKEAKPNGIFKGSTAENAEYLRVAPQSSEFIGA

As a reminder, the pIC50 is the IC50 on a negative log10 scale, so that one unit is a factor of ten. High values mean a low IC50, low ones a high IC50. As to `CC(C)(C)OC(=O)N1CCCC1C#CC(=O)N1CCn2nc(-c3ccc(F)cc3)c(-c3ccncc3)c2C1` (racemic) [Example 87, tert-butyl(2RS)-2-(3-[2-(4-fluorophenyl)-3-(pyridin-4-yl)-6,7-dihydropyrazolo[1,5-a]pyrazin-5(4H)-yl]-3-oxoprop-1-yn-1-yl) pyrrolidine-1-carboxylate], the pIC50 in assay [1] was 7.08; in the assay with BA/F3 (insSVD) cells (Mus musculus, BaF3, 48 h), 5.97; in assay [2], 7.27.
In the case of `O=C(C#CC1CCCN1)N1CCn2nc(-c3ccc(F)cc3)c(-c3ccncc3)c2C1` (racemic) [Example 88, 1-[2-(4-fluorophenyl)-3-(pyridin-4-yl)-6,7-dihydropyrazolo[1,5-a]pyrazin-5(4H)-yl]-3-[(2RS)-pyrrolidin-2-yl]prop-2-yn-1-one], the negative logarithm of the IC50 (pIC50) in assay [1] is 7.80; with BA/F3 (insSVD) cells (Mus musculus, BaF3, 48 h), 5.42; in assay [2] it was 8.03.
For the molecule `CN(C)C/C=C/C(=O)N1Cc2c(-c3ccncc3)c(-c3ccc(F)cc3)nn2C(CO)C1` (racemic) [Example 201, rac-(R,E)-4-(dimethylamino)-1-(2-(4-fluorophenyl)-7-(hydroxymethyl)-3-(pyridin-4-yl)-6,7-dihydropyrazolo[1,5-a]pyrazin-5(4H)-yl) but-2-en-1-one], the negative logarithm of the IC50 (pIC50) in assay [1] is 8.47; with BA/F3 (insSVD) cells (Mus musculus, BaF3, 48 h), 6.37; in assay [2] it was 8.78.
As for `CN(C)C/C=C/C(=O)N1Cc2c(-c3ccncc3)c(-c3ccc(F)cc3)nn2C(C(N)=O)C1` (racemic) [Example 202, (7RS)-5-[(2E)-4-(dimethylamino)but-2-enoyl]-2-(4-fluorophenyl)-3-(pyridin-4-yl)-4,5,6,7-tetrahydropyrazolo[1,5-a]pyrazine-7-carboxamide], the pIC50 was 6.65 in assay [1]; 5.00 in the assay on BA/F3 (insSVD) cells (Mus musculus, BaF3, 48 h); 7.24 in assay [2].
`C=CC(=O)N1Cc2c(-c3ccncc3)c(-c3ccc(F)cc3)nn2C(C(N)=O)C1` (racemic) [Example 204, (7RS)-5-acryloyl-2-(4-fluorophenyl)-3-(pyridin-4-yl)-4,5,6,7-tetrahydropyrazolo[1,5-a]pyrazine-7-carboxamide]: the negative logarithm of the IC50 (pIC50) in assay [1] was 7.76; with BA/F3 (insSVD) cells (Mus musculus, BaF3, 48 h), 6.87; in assay [2] it was 8.34.
As to `CN(C)C/C=C/C(=O)N1Cc2c(-c3ccncc3)c(-c3ccc(F)cc3)nn2C(CCO)C1` (racemic) [Example 219, rac-(R,E)-4-(dimethylamino)-1-(2-(4-fluorophenyl)-7-(2-hydroxyethyl)-3-(pyridin-4-yl)-6,7-dihydropyrazolo[1,5-a]pyrazin-5(4H)-yl) but-2-en-1-one], the negative logarithm of the IC50 (pIC50) in assay [1] was 8.92; in the assay with BA/F3 (insSVD) cells (Mus musculus, BaF3, 48 h), 6.51; in assay [2] it was 9.15.
Regarding `C=CC(=O)N1C(C)c2c(-c3ccncc3)c(-c3ccc(Cl)cc3F)nn2C[C@H]1C` (single isomer, unassigned; isomer 1) [Example 290], the pIC50 with BA/F3 (insSVD) cells (48 h) is 5.46; in assay [2], 5.93.
On the same counts, the results for `C=CC(=O)N1C(C)c2c(-c3ccncc3)c(-c3ccc(Cl)cc3F)nn2C[C@H]1C` (single isomer, unassigned; isomer 2) [Example 291] are 7.28 and 8.95.
Take `CNC/C=C/C(=O)N1CCn2nc(-c3ccc(F)cc3)c(-c3ccncc3)c2C1` [Example 80, (2E)-1-[2-(4-fluorophenyl)-3-(pyridin-4-yl)-6,7-dihydropyrazolo[1,5-a]pyrazin-5(4H)-yl]-4-(methylamino)but-2-en-1-one]: the pIC50 with BA/F3 (insSVD) cells (Mus musculus, BaF3, 48 h) was 5.86; in assay [2] it was 7.71.
Consider `CCNC/C=C/C(=O)N1CCn2nc(-c3ccc(F)cc3)c(-c3ccncc3)c2C1` [Example 81, (2E)-4-(ethylamino)-1-[2-(4-fluorophenyl)-3-(pyridin-4-yl)-6,7-dihydropyrazolo[1,5-a]pyrazin-5(4H)-yl]but-2-en-1-one], for which the pIC50 in the assay with BA/F3 (insSVD) cells (Mus musculus, BaF3, 48 h) is 6.87; in assay [2], 8.38.
`CN1CCN(C/C=C/C(=O)N2CCn3nc(-c4ccc(F)cc4)c(-c4ccncc4)c3C2)CC1` [Example 82, (2E)-1-[2-(4-fluorophenyl)-3-(pyridin-4-yl)-6,7-dihydropyrazolo[1,5-a]pyrazin-5(4H)-yl]-4-(4-methylpiperazin-1-yl) but-2-en-1-one]: the pIC50 with BA/F3 (insSVD) cells (Mus musculus, BaF3, 48 h) is 6.13; in assay [2], 7.53.
For the molecule `C=CC(=O)N1CCn2nc(-c3cccc(CO)c3)c(-c3ccncc3)c2C1` [Example 121, 1-{2-[3-(hydroxymethyl)phenyl]-3-(pyridin-4-yl)-6,7-dihydropyrazolo[1,5-a]pyrazin-5(4H)-yl}prop-2-en-1-one], the pIC50 with BA/F3 (insSVD) cells (Mus musculus, BaF3, 48 h) is 6.67; in assay [2], 8.73.
In the same order, the values of `C=CC(=O)N1Cc2c(-c3ccncc3)c(-c3ccc(C(F)(F)F)cc3F)nn2C[C@H]1C` [Example 125, 1-[(6R)-2-[2-fluoro-4-(trifluoromethyl)phenyl]-6-methyl-3-(pyridin-4-yl)-6,7-dihydropyrazolo[1,5-a]pyrazin-5(4H)-yl]prop-2-en-1-one] are 7.34 and 8.95.
In the case of `CN(C/C=C/C(=O)N1CCn2nc(-c3ccc(Cl)cc3)c(-c3ccncc3)c2C1)CCO` [Example 170, (2E)-1-[2-(4-chlorophenyl)-3-(pyridin-4-yl)-6,7-dihydropyrazolo[1,5-a]pyrazin-5(4H)-yl]-4-[(2-hydroxyethyl)(methyl)amino]but-2-en-1-one], the pIC50 was 6.72 in the assay with BA/F3 (insSVD) cells (Mus musculus, BaF3, 48 h) and 9.42 in assay [2].
With `C=CC(=O)N1CCn2nc(-c3cccc(Cl)c3F)c(-c3ccnc4[nH]cc(C)c34)c2C1` [Example 176, 1-[2-(3-chloro-2-fluorophenyl)-3-(3-methyl-1H-pyrrolo[2,3-b]pyridin-4-yl)-6,7-dihydropyrazolo[1,5-a]pyrazin-5(4H)-yl]prop-2-en-1-one], the pIC50 in the assay with BA/F3 (insSVD) cells (Mus musculus, BaF3, 48 h) is 7.20; in assay [2] it was 6.78.
`C=CC(=O)N1CCn2nc(-c3cccc(C(F)(F)F)c3)c(-c3ccnc4[nH]cc(C)c34)c2C1` [Example 178, 1-(3-(3-methyl-1H-pyrrolo[2,3-b]pyridin-4-yl)-2-(3-(trifluoromethyl)phenyl)-6,7-dihydropyrazolo[1,5-a]pyrazin-5(4H)-yl) prop-2-en-1-one]: the pIC50 is 7.23 with BA/F3 (insSVD) cells (Mus musculus, BaF3, 48 h) and 6.68 in assay [2].
On to `C=CC(=O)N1CCn2nc(-c3ccc4cc(F)sc4c3)c(-c3ccnc4[nH]cc(C)c34)c2C1` [Example 181, 1-[2-(2-fluoro-1-benzothiophen-6-yl)-3-(3-methyl-1H-pyrrolo[2,3-b]pyridin-4-yl)-6,7-dihydropyrazolo[1,5-a]pyrazin-5(4H)-yl]prop-2-en-1-one], for which the pIC50 in the assay with BA/F3 (insSVD) cells (Mus musculus, BaF3, 48 h) is 7.19; in assay [2], 7.22.
Regarding `Cc1c[nH]c2nccc(-c3c(-c4cccc(C(F)(F)F)c4)nn4c3CN(C(=O)/C=C/CN(C)C)CC4)c12` [Example 185, (E)-4-(dimethylamino)-1-(3-(3-methyl-1H-pyrrolo[2,3-b]pyridin-4-yl)-2-(3-(trifluoromethyl)phenyl)-6,7-dihydropyrazolo[1,5-a]pyrazin-5(4H)-yl) but-2-en-1-one], the negative logarithm of the IC50 (pIC50) is 7.16 in the assay on BA/F3 (insSVD) cells (Mus musculus, BaF3, 48 h) and 6.63 in assay [2].
For `Cc1c[nH]c2nccc(-c3c(-c4ccc5cc(F)sc5c4)nn4c3CN(C(=O)/C=C/CN(C)C)CC4)c12` [Example 187, (2E)-4-(dimethylamino)-1-[2-(2-fluoro-1-benzothiophen-6-yl)-3-(3-methyl-1H-pyrrolo[2,3-b]pyridin-4-yl)-6,7-dihydropyrazolo[1,5-a]pyrazin-5(4H)-yl]but-2-en-1-one], in assay [2], the pIC50 is 7.52.
